# Assay results published in PMC8632988, “Inhibition of SYK and cSrc kinases can protect bone and cartilage in preclinical models of osteoarthritis and rheumatoid arthritis” (Scientific Reports, 2021).
# Where “and” joins values, the source holds several entries; their conditions need not be identical. Identical values can stand only once.
# Tested on: Lewis rats, CIA model
# Test: Collagen-induced semi-established arthritis model in rats
# Assay type: in vivo, rat
# Settings: for Bone Resorption score, Mean / Cartilage Damage score, Mean / Inflammation score, Mean / Pannus score, Mean / Periosteal Bone Formation score, Mean / Periosteal Naïve Bone Width Actual, Mean / Summed Histopathology Scores, Mean: group mean; for Bone Resorption score (0=normal to 5=severe) / Cartilage Damage score (0=normal to 5=severe) / Inflammation score (0=normal to 5=severe) / Pannus score (0=normal to 5=severe) / Periosteal Bone Formation score (0=normal to 5=severe) / Periosteal Naïve Bone Width 16x Measure / Periosteal Naïve Bone Width Actual / Summed Histopathology Scores: individual joint (animal, R/L); for Bone Resorption score, % inhibition / Cartilage Damage score, % inhibition / Inflammation score, % inhibition / Pannus score, % inhibition / Periosteal Bone Formation score, % inhibition / Periosteal Naïve Bone Width, % inhibition / Summed Histopathology Scores, % inhibition: vs vehicle
# Experimental: Rat CIA model was performed was performed at Pharmenterprises, Russia and approved by Ethics Committee of Pharmenterprises. Female Lewis rats with body weight of 164–183 g (Charles River Laboratories, Inc., Wilmington, MA) were injected with porcine type II collagen (Chondrex) emulsified with Freund’s Incomplete Adjuvant (Sigma Aldrich) at two sites at the base of the tail according to standard protocol. On day 7, the rats were boosted with a second subcutaneous injection. On day 6 of the study, rats were randomized by body weight into six groups: a control group of four, and five treatment groups of eight. […] Disease progression was monitored via daily ankle thickness measurements. At study termination on day 16 rats were anesthetized with Isoflurane, bled by vacutainer through the descending aorta to exsanguinate and then euthanized for tissue collection. Hind paws were transected at the level of the medial and lateral malleolus, weighed, and collected for microscopy.
# […]
# [1] = ankle, day 16, MT-SYK-03 103 mg/kg PO BID + MTX Veh PO QD
# [2] = ankle, day 16, MT-SYK-03 103 mg/kg PO BID + MTX Veh PO QD, 103 mg/kg
# [3] = ankle, day 16, MT-SYK-03 207 mg/kg PO BID
# [4] = ankle, day 16, MT-SYK-03 207 mg/kg PO BID, 207 mg/kg
# [5] = knee, day 16, MT-SYK-03 103 mg/kg PO BID + MTX Veh PO QD
# [6] = knee, day 16, MT-SYK-03 103 mg/kg PO BID + MTX Veh PO QD, 103 mg/kg
# [7] = knee, day 16, MT-SYK-03 207 mg/kg PO BID + MTX Veh PO QD
structure (smiles),measurement,setting,value
COc1cc(Nc2ncnc(Nc3cc4c(cn3)NC(=O)C(C)(C)O4)n2)cc(OC)c1OC [MT-SYK-03],"Bone Resorption score, Mean",[1],1.50
same,"Cartilage Damage score, Mean",[1],2.09
same,"Inflammation score, Mean",[1],4.44
same,"Pannus score, Mean",[1],1.50
same,"Periosteal Bone Formation score, Mean",[1],1.19
same,"Periosteal Naïve Bone Width Actual, Mean",[1],200.81 μm
same,"Summed Histopathology Scores, Mean",[1],10.72
same,Bone Resorption score (0=normal to 5=severe),[2],2 and 0.5 and 1
same,Cartilage Damage score (0=normal to 5=severe),[2],3 and 0.5 and 2 and 1
same,Inflammation score (0=normal to 5=severe),[2],5 and 2 and 4 and 3
same,Pannus score (0=normal to 5=severe),[2],2 and 0.5 and 1
same,Periosteal Bone Formation score (0=normal to 5=severe),[2],2 and 0 and 1 and 0.5
same,Periosteal Naïve Bone Width 16x Measure,[2],5 and 0 and 3 and 2 and 1 and 4
same,Periosteal Naïve Bone Width Actual,[2],315 μm and 0 μm and 189 μm and 126 μm and 63 μm and 252 μm
same,Summed Histopathology Scores,[2],14 and 3.5 and 12 and 13 and 10 and 6.5 and 7.5 and 8.5
same,"Bone Resorption score, % inhibition",[1],−2%
same,"Cartilage Damage score, % inhibition",[1],13%
same,"Inflammation score, % inhibition",[1],1%
same,"Pannus score, % inhibition",[1],-2%
same,"Periosteal Bone Formation score, % inhibition",[1],7%
same,"Periosteal Naïve Bone Width, % inhibition",[1],11%
same,"Summed Histopathology Scores, % inhibition",[1],4%
same,"Bone Resorption score, Mean",[3],1.06
same,"Cartilage Damage score, Mean",[3],1.78
same,"Inflammation score, Mean",[3],3.84
same,"Pannus score, Mean",[3],1.06
same,"Periosteal Bone Formation score, Mean",[3],0.69
same,"Periosteal Naïve Bone Width Actual, Mean",[3],129.94 μm
same,"Summed Histopathology Scores, Mean",[3],8.44
same,Bone Resorption score (0=normal to 5=severe),[4],1 and 2 and 0 and 0.5
same,Cartilage Damage score (0=normal to 5=severe),[4],2 and 3 and 0.5 and 1
same,Inflammation score (0=normal to 5=severe),[4],4 and 5 and 0.5 and 1 and 2 and 3
same,Pannus score (0=normal to 5=severe),[4],1 and 2 and 0 and 0.5
same,Periosteal Bone Formation score (0=normal to 5=severe),[4],0.5 and 1 and 0 and 2
same,Periosteal Naïve Bone Width 16x Measure,[4],1 and 2 and 3 and 4 and 0 and 5
same,Periosteal Naïve Bone Width Actual,[4],63 μm and 126 μm and 189 μm and 252 μm and 0 μm and 315 μm
same,Summed Histopathology Scores,[4],8.5 and 12.5 and 13 and 12 and 10 and 1 and 1.5 and 3.5 and 4 and 14 and 6.5
same,"Periosteal Naïve Bone Width, ANOVA to Vehicle","ankle, day 16, MT-SYK-03 207 mg/kg PO BID, p value",p < 0.05
same,"Bone Resorption score, % inhibition",[3],28%
same,"Cartilage Damage score, % inhibition",[3],26%
same,"Inflammation score, % inhibition",[3],15%
same,"Pannus score, % inhibition",[3],28%
same,"Periosteal Bone Formation score, % inhibition",[3],46%
same,"Periosteal Naïve Bone Width, % inhibition",[3],42%
same,"Summed Histopathology Scores, % inhibition",[3],24%
same,"Bone Resorption score, Mean",[5],0.66
same,"Cartilage Damage score, Mean",[5],1.03
same,"Inflammation score, Mean",[5],2.78
same,"Pannus score, Mean",[5],0.72
same,"Summed Histopathology Scores, Mean",[5],5.19
same,Bone Resorption score (0=normal to 5=severe),[6],1 and 2 and 0 and 0.5
same,Cartilage Damage score (0=normal to 5=severe),[6],2 and 0 and 1 and 0.5
same,Inflammation score (0=normal to 5=severe),[6],5 and 0.5 and 4 and 3 and 2
same,Pannus score (0=normal to 5=severe),[6],1 and 2 and 0 and 0.5
same,Summed Histopathology Scores,[6],9 and 11 and 0.5 and 7 and 8 and 5 and 4.5 and 3 and 1
same,"Bone Resorption score, % inhibition",[5],9%
same,"Cartilage Damage score, % inhibition",[5],21%
same,"Inflammation score, % inhibition",[5],13%
same,"Pannus score, % inhibition",[5],4%
same,"Summed Histopathology Scores, % inhibition",[5],13%
same,"Bone Resorption score, Mean",[7],0.16
same,"Cartilage Damage score, Mean",[7],0.56
same,"Inflammation score, Mean",[7],1.59
same,"Pannus score, Mean",[7],0.41
same,"Summed Histopathology Scores, Mean",[7],2.63
